This passage reports IC50 and inhibition results from paper PMC6222853 (Molecules : A Journal of Synthetic Chemistry and Natural …, 2018).

Test [1] addresses T1, egg albumin (Gallus gallus, UniProt P01012).
T1 sequence (P01012 1-386): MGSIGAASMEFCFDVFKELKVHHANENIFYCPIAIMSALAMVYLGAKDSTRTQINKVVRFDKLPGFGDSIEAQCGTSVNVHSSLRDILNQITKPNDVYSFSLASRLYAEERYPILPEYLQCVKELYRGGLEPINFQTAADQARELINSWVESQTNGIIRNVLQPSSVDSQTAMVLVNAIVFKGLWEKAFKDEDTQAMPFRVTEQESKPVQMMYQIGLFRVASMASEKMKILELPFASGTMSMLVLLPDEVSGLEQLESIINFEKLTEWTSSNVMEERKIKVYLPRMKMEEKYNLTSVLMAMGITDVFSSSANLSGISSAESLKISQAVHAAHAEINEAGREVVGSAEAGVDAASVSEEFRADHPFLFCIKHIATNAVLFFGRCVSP
The test is described as follows: Albumin denaturation inhibition assay. The arrangement: species or system chicken. The settings on record: for IC50: egg albumin, heated at 70 °C, in vitro. The protocol: Albumin denaturation inhibition effects of the compounds were confirmed through a previously described method. Egg albumin was used in this experiment, and the reaction mixture contained 0.1 mL of egg albumin, 0.7 mL of phosphate-buffered saline (PBS), and varying concentrations of different compounds (0.5 mL). Mili-Q water (0.5 mL) instead of the compounds was used in the negative control. The reaction mixtures were incubated at 37 °C for 15 min and heated at 70 °C for 5 min. The absorbance was measured at 660 nm after cooling at room temperature. Ketorolac was used as a standard drug. Percentage of albumin denaturation inhibition was calculated according to the following formula:Percentage of inhibition = (1 − (A/B)) × 100, where A is the absorbance of the test sample, and B is the absorbance of the negative control.

Test [2] has as its system RAW 264.7 cells. Briefly: cells. Type of test: cell-based. The settings on record: Mus musculus, RAW264.7, 24 h, read-out: Inhibition of cell proliferation, deviation from the control group. Here is the method: RAW 264.7 cell viability was evaluated through the MTT assay. Cells were seeded in a 24-well plate at a density of 2 × 10^5 cells/well and incubated with the OP compounds for 24 h. Ketroloac (200 μM) was also assessed to determine its cytotoxicity on RAW 264.7 cells. After incubation, the supernatant was removed, and the cells were washed with PBS. Aliquots of 100 μL of MTT solution (0.5 mg/mL in PBS) were added to each well, and the plate was incubated at 37 °C for 3 h. Afterwards, dimethyl sulfoxide (400 μL) was added to each well, and the plate was shaken for 10 min at room temperature to dissolve the formazan crystals. The absorbance was measured at 570 nm wavelength using a microplate reader, and the cell viability was calculated from the absorbance of the treated versus untreated control cells.

In test [3] the test system is LPS-stimulated RAW 264.7 cells. The test is described as follows: Nitrite inhibition assay in LPS-stimulated cells. Type of test: cell-based. The settings on record: Mus musculus; for IC50: RAW264.7, 24 h, read-out: Nitrite Inhibition (IC50 Value). The protocol:
As an indicator of NO synthesis, nitrite amount was measured in the supernatant of LPS-stimulated RAW 264.7 cells. Cells were plated on a 24-well plate with a density of 2 × 10^5 cells/well. After seeding, cells were treated with LPS (500 ng/mL final concentration) and varying concentrations of the test compounds for 24 h. Ketorolac (200 μM) was used as a standard drug. Then, 100 μL of culture supernatant from each well was mixed with an equal volume of Griess reagent, and incubated at room temperature for 10 min. The formation of an azo compound was measured spectrophotometrically at 550 nm wavelength. Finally, nitrite concentration was determined from a standard curve of sodium nitrite, and nitrite inhibition percentages of test compounds and the reference drug were calculated based on the amount of nitrite produced by the control cells (treated only with LPS).

In test [4] the target is T2, COX-2 (Mus musculus, UniProt Q05769).
T2 construct: treated with 500 ng/mL LPS for the next 24 h to induce the production of COX-2; endogenous in cells; host or cells: RAW 264.7 cells, LPS-induced
T2 sequence (Q05769 18-604): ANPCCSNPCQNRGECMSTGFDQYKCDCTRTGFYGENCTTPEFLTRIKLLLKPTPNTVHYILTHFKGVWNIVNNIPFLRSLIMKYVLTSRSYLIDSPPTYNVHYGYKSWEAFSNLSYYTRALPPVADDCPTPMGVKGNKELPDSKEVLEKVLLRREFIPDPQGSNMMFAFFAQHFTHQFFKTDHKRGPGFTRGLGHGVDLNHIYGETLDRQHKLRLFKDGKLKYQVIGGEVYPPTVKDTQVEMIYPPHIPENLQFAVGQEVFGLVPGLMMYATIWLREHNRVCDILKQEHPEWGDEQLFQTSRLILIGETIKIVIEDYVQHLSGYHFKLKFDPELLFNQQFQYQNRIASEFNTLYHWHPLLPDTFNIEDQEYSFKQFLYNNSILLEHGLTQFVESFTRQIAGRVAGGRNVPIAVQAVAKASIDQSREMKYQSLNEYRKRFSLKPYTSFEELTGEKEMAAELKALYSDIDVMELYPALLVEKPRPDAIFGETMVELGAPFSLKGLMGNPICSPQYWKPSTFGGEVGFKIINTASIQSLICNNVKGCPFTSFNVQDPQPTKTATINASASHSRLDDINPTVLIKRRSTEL
The test is described as follows: Cell-based assay for COX-2 inhibition (PGE2 ELISA). The settings on record: LPS-induced RAW 264.7 cells, conversion of arachidonic acid to PGE2. Here is the method: This assay was carried out according to the method described by Stanikunaite et al. with some modifications. In brief, RAW 264.7 cells (2 × 10^5 cells/well) were cultured in a 24-well plate in DMEM supplemented with 10% FBS and incubated at 37 °C for 24 h for seeding. After seeding, cells were washed with PBS (400 µL) and treated with 500 ng/mL LPS for the next 24 h to induce the production of COX-2. Then, the induced cells were washed thoroughly with PBS to remove LPS completely and treated with different concentrations of test compounds for 4 h. Arachidonic acid (300 µM) was added and the cells were further incubated for 30 min. Next, the PGE2 levels were determined in the culture supernatant using a PGE2 ELISA kit (Cayman Chemical Co., Ann Arbor, MI, USA) according to the manufacturer’s instructions. COX-2 enzyme activity was determined by the conversion of exogenous arachidonic acid to PGE2, and was expressed as the percentage of negative control (without test compounds). Finally, IC50 values were calculated for all the tested compounds. Indomethacin was used as a positive control.

In test [5] the target is T3, yeast α-glucosidase (Saccharomyces cerevisiae, UniProt P53341).
T3 construct: purchased Sigma-Aldrich (Saint Louis, MO, USA)
Briefly: α-Glucosidase inhibition assay. Type of test: biochemical. The protocol:
The α-glucosidase assay was performed with slight modifications of a previous method. In short, 15 µL of the test sample at various concentrations was added to 140 µL of enzyme solution (0.0073 U/mL of α-glucosidase in 0.05 M sodium phosphate buffer containing 100 mM NaCl) in a 96-well plate. Reaction mixtures were incubated at 37 °C for 15 min. Then, 25 µL of 0.7 mM p-nitrophenyl-α-D-glucopyranoside (PNPG) solution in 0.05 M sodium phosphate buffer (pH 6.8) was added to each well.

Test [6] has as its target T4, electric eel AChE (Electrophorus electricus, UniProt O42275).
T4 construct: purchased Sigma-Aldrich (Saint Louis, MO, USA)
Briefly: biochemical. The settings on record: in vitro, electric eel enzyme; read-out: AChE inhibition IC50. The protocol:
The AChE inhibitory properties of the compounds were determined using a 96-well microplate colorimetric method as described by Ellman et al.. Donepezil was used as a positive control.

Molecules are shown by their SMILES.

T3 sequence (P53341 whole entry): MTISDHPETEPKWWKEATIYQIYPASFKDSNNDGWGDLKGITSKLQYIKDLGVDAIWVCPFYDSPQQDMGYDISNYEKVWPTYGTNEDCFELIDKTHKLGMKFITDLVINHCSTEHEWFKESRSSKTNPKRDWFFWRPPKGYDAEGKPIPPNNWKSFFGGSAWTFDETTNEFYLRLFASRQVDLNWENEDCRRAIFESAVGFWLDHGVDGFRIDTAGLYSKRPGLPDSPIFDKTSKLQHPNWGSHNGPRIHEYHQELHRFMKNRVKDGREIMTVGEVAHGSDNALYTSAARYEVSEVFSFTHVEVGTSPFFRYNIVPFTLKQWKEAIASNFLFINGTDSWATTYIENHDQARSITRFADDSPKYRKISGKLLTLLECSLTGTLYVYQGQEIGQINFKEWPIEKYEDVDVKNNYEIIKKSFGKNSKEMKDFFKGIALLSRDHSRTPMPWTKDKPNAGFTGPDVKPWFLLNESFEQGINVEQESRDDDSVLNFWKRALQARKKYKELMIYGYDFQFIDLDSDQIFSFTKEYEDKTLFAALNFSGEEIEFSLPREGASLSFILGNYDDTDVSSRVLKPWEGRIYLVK
T4 sequence (O42275 24-633): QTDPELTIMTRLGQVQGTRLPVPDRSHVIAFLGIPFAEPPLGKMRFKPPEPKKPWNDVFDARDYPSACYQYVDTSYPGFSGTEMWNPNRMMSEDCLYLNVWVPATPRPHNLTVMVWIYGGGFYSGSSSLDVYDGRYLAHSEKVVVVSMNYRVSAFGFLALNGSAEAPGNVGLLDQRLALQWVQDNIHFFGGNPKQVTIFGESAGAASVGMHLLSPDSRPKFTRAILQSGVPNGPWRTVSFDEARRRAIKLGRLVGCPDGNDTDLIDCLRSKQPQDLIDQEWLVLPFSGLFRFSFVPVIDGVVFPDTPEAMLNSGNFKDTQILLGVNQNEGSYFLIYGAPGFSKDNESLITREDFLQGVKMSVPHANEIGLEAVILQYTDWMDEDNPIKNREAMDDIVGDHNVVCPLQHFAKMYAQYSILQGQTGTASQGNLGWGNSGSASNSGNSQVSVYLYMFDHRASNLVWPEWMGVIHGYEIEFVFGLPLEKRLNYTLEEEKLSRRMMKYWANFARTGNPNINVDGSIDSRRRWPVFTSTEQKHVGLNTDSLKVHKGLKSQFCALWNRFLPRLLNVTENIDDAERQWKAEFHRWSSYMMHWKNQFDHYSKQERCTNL

As for `CC(C)=CCC/C(C)=C/Cc1c([C@@H]2CC(=O)c3c(O)cc(O)cc3O2)ccc(O)c1O` [NB, nymphaeol-B], the IC50 (usually the concentration needed to halve the response being measured) in test [1] was 0.54 µM; in test [3], 5.4 µM; in test [4] it was 17.9 µM; in test [5] it was 5.66 µM; in test [6] it was 15.1 µM. Also, the inhibition at 12 µM in test [2] is 3 to 5%.

Consider `CC(C)=CCC/C(C)=C/Cc1cc([C@@H]2CC(=O)c3c(O)cc(O)cc3O2)ccc1O` [GN, 3′-geranyl-naringenin], for which the IC50 in test [1] was found to be 1.02 µM; in test [3], 7 µM; in test [4], 24 µM; in test [5], 5.4 µM; in test [6] it was 12.3 µM.

For `CC(C)=CCC/C(C)=C/Cc1cc(C2CC(=O)c3c(O)cc(O)cc3O2)cc(O)c1O` (centres unmarked) [INB, isonymphaeol-B], the IC50 in test [1] was found to be 0.42 µM; in test [3] it was 6.2 µM; in test [4] it was 23.8 µM; in test [5], 5.12 µM; in test [6] it was 7.23 µM. Further, the inhibition at 12 µM in test [2] lay within 3 to 5%.

In the case of `CC(C)=CCC/C(C)=C/Cc1c(O)cc2c(c1O)C(=O)C[C@@H](c1ccc(O)c(O)c1)O2` [NA, nymphaeol-A], the IC50 in test [1] worked out at 0.26 µM; in test [3], 3.2 µM; in test [4] it was 11.7 µM; in test [5], 3.77 µM; in test [6] it was 7.77 µM.

Take `O=C(c1ccccc1)c1ccc2n1CCC2C(=O)O` (centres unmarked) [ketorolac, reference compound]: the inhibition at 200 µM in test [1] (at 200 µM) was determined as 52%; in test [3] (RAW264.7, 200 μM, compared to cells treated only with LPS, read-out: Inhibition of nitrite formation in the supernatant), 26%.

Consider `CC(C)=CCC/C(C)=C/Cc1c([C@@H]2CC(=O)c3c(cc(O)c(CC=C(C)C)c3O)O2)ccc(O)c1O` [NC, nymphaeol-C], for which the IC50 is 0.37 µM in test [1]; 2.4 µM in test [3]; 15.4 µM in test [4]; 4.09 µM in test [5]; 15.7 µM in test [6].
